Test results as given in ChEMBL document CHEMBL1143570, “Architecture of the human urotensin II receptor: comparison of the binding domains of peptide and non-peptide urotensin II agonists” (J Med Chem, 2005).

Biological target: T1, Urotensin-2 receptor (Homo sapiens, UniProt Q9UKP6)
T1 sequence (Q9UKP6 whole entry): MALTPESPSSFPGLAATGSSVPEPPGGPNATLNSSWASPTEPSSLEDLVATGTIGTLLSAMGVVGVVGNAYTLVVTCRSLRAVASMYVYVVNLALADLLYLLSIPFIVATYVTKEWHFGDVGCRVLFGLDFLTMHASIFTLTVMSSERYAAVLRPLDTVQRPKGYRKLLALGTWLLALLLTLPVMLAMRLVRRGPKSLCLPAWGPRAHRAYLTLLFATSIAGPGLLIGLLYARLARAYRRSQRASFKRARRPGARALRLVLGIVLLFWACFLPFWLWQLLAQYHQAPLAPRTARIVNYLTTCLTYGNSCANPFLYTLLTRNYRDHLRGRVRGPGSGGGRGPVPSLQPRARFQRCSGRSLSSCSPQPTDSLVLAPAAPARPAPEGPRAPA
Test: Agonist activity for human Urotensin 2 receptor
Assay type: functional

`CCN(CC)CCC1C(c2ccccc2)=Nc2ccccc2SC1c1ccc(Cl)cc1` (stereo not drawn) was tested, and the EC50 was 6.3 µM.

Work on `CN(C)CCC1(c2ccc(Cl)cc2)Cc2ccccc2C(=O)O1` (stereo not drawn) yielded an EC50 of 0.3 µM.

For `CCN(CC)CCC1=C(c2ccccc2)NC(=O)N(C)C1c1ccc(Cl)cc1` (stereo not drawn), the EC50 was 5 µM.
